Consider three compounds from patent US20070219223A1, “Compositions and methods for treating respiratory disorders” (Endacea, Inc., priority 2006, published 2007).

The test system of series [1] is allergic rabbits. The experiment in a line: Adenosine provocation test after aerosol L-97-1 in allergic rabbits (PC50 of adenosine, lung compliance). It counts as in vivo, rabbit. The following applies: controls without L-97-1, aerosolized adenosine, n=9.
For series [2], the system named is allergic rabbits. The following applies: baseline BHR, aerosolized histamine, n=5.
Experimental: All animals were anesthetized and intubated. All treatments were administered via an endotracheal tube with an ultrasonic nebulizer that produces aerosol droplets (80% are less than 5 μm). Dynamic compliance (Cdyn) was calculated from tidal volume and the difference in transpulmonary pressure (PTP) at zero flow (V). Total lung resistance (RT) was calculated as the ratio of PTP and V at […] lung volumes; these measurements are made automatically with the Buxco Respiratory Analyzer.
The conditions of series [3]: cited from earlier work.

Where a name gives a salt, the structure may show the parent alone.

For the compound `Nc1ncnc2c1ncn2[C@@H]1O[C@H](CO)[C@@H](O)[C@H]1O` [adenosine], in the series on allergic rabbits [1], the “PC50 for adenosine (concentration of adenosine to reduce lung compliance by 50%)” value was 3.24 ± 1.79 mg/mL.

`NCCc1c[nH]cn1` [histamine]: the “PC50 for histamine (concentration of histamine to reduce lung compliance by 50%)” value in the series with allergic rabbits [2] was 0.77 ± 0.28 mg/mL.

As for `OCc1cc(C(O)CNCCCCCCOCCCCc2ccccc2)ccc1O` (stereo not drawn) [salmeterol xinafoate, salmeterol 1-hydroxy-2-napthoic acid salt], the Solubility in water result in series [3] is “sparingly soluble in water”.
